Measurements published in ChEMBL document CHEMBL3259752, “Cell permeable vanX inhibitors as vancomycin re-sensitizing agents” (Bioorg Med Chem Lett, 2014).
The source made the active and inactive calls. The calls are words filed in the database; no cut-off is given here.

Legend:
[1] = biological target: T1, D-alanyl-D-alanine dipeptidase (Enterococcus faecium, UniProt Q06241); assay: Inhibition of Enterococcus faecium VanX expressed in Escherichia coli BL21 (DE3) cells using D-alanyl-alpha-R-phenylthioglycine as substrate by colorimetric assay
T1 sequence (Q06241 whole entry): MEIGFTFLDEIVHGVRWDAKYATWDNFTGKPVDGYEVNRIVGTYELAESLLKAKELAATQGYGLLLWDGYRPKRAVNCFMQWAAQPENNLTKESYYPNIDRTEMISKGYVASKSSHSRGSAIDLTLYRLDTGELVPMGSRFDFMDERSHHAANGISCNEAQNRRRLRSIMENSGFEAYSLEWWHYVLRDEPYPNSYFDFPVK

Enterococcus faecium [2] = assay: Antibacterial activity against vancomycin-resistant Enterococcus faecium E12-2 assessed as growth inhibition by checkerboard analysis; type: functional, organism-based
Enterococcus faecium [3] = assay: Increase in vancomycin sensitivity in vancomycin-resistant Enterococcus faecium E12-2 assessed as reduction in vancomycin MIC at 212 ug/ml by checkerboard analysis; type: functional, organism-based
[4] = Cytotoxicity against HEK293 cells after 72 hrs by MTT assay; type: cell-based; details: human
Enterococcus faecium [5] = assay: Increase in vancomycin sensitivity in vancomycin-resistant Enterococcus faecium E12-2 assessed as reduction in vancomycin MIC at 72 ug/ml by checkerboard analysis; type: functional, organism-based

Q: With `C[C@@H](NC(=O)c1cccc(=S)n1O)C(=O)O` as the compound, how does the Ki [1] read?
A: 6.84 µM

Q: What about the inhibition (Enterococcus faecium [2]) of the same compound?
A: inactive

Q: What about the Activity (Enterococcus faecium [3]) of the same compound?
A: Active

Q: What about the CC50 at 72 h [4] of the same compound?
A: 76 µM

Q: Which Ki [1] does the source give for `C[C@H](CP(=O)(O)[C@@H](C)N)C(=O)O` here?
A: 1.5 µM

Q: With `C[C@@H](N)P(=O)(O)C[C@H](C(=O)O)c1ccccc1` as the compound, how does the Ki [1] read?
A: 2.9 µM

Q: For `CC1(C)S[C@@H]2[C@H](NC(=O)[C@H](N)c3ccc(O)cc3)C(=O)N2[C@H]1C(=O)O` [AMOXICILLIN], which CC50 at 72 h [4] is on record?
A: 24 µM

Q: With `CC(C)[C@H](CP(=O)(O)[C@@H](C)N)C(=O)O` as the compound, how does the Ki [1] read?
A: 6.1 µM

Q: With `O=C(N[C@@H](C(=O)O)c1ccccc1)c1cccc(=S)n1O` as the compound, how does the Ki [1] read?
A: 2.74 µM

Q: And the inhibition (Enterococcus faecium [2])?
A: inactive

Q: And the Activity (Enterococcus faecium [5])?
A: Active

Q: What about the CC50 at 72 h [4] of the same compound?
A: 64 µM

Q: Which CC50 at 72 h [4] does the source give for `CN[C@H](CC(C)C)C(=O)N[C@H]1C(=O)N[C@@H](CC(N)=O)C(=O)N[C@H]2C(=O)N[C@H]3C(=O)N[C@H](C(=O)N[C@H](C(=O)O)c4cc(O)cc(O)c4-c4cc3ccc4O)[C@H](O)c3ccc(c(Cl)c3)Oc3cc2cc(c3O[C@@H]2O[C@H](CO)[C@@H](O)[C@H](O)[C@H]2O[C@H]2C[C@](C)(N)[C@H](O)[C@H](C)O2)Oc2ccc(cc2Cl)[C@H]1O` [VANCOMYCIN] here?
A: > 100 µM
